From patent US11952365B2, “Anti-viral compounds” (Aligos Therapeutics, Inc., priority 2020, dated 2024)
Read-outs that look alike come from different tables or passages of the source.

Columns and labels:
[1] = Cytotoxicity plates without OC43 virus (cell-titer-glo); format: cell-based, human; details: human; HeLa cells without OC43 virus, class symbols
Outline: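 Run as a virus-free counterpart of the OC43 cytopathic-effect assay. Attached HeLa cells received compound dilutions in EMEM with 2% FBS and were kept 6 days at 33 °C. Cell viability was then measured by CellTiter-Glo luminescence.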

[2] = tested on: SARS-CoV-2-GHB-03021/2020; assay: microbe, parasite or virus in culture; format: cell-based
human cathepsin L = target: T1, human cathepsin L (Homo sapiens, UniProt P07711); assay: cathepsin L assay; format: biochemical; details: 10 pM human cathepsin L, Z-FR-AMC 2 μM, class symbols
T1 construct: purchased R&D Systems
Outline: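 Reactions began by adding 2 μM (final) Z-FR-AMC substrate to 10 pM human cathepsin L that had been preincubated 30 min with inhibitor. Kinetic AMC fluorescence at 355/460 nm over 30 min at 2-min intervals; four-parameter fitting gave IC50 values.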

3CLpro = 3CLpro (Severe acute respiratory syndrome coronavirus 2, UniProt P0DTD1); assay: SARS-CoV-2 3CLpro protease assay (duplex, SAMDI-MS); format: biochemical; parameters: For the duplex assay, 3CLpro and HRV3C was added; details: 30 mins preincubation
[3] = tested on: human beta-coronavirus OC43; assay: microbe, parasite or virus in culture; format: cell-based; details: Betacoronavirus 1, OC43, HeLa, 144 h
[4] = tested on: SARS-CoV-2-GHB-03021/2020; assay: SARS-CoV-2 Infection Model in Huh7 Cells; format: cell-based; details: Severe acute respiratory syndrome coronavirus 2, Huh-7, 96 h, SARS-CoV-2, day 4 p.i., MTS
in vitro [5] = details: human
HRV3C = HRV3C (Human rhinovirus 14, UniProt P03303); assay: HRV3C protease assay (duplex, SAMDI-MS); format: biochemical, HRV; details: 30 mins preincubation
Outline: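 Compounds are preincubated 30 min with the protease pair before substrate addition, and cleavage proceeds 30 min at room temperature. Product peptides are measured by SAMDI-MS relative to internal standards, with IC50 obtained from a four-parameter fit.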

in vitro [6] = details: African green monkey, VeroE6 + CP (CC50)
[7] = Severe acute respiratory syndrome coronavirus 2, Vero C1008, 96 h; read-out: VeroE6 + CP (EC50)
[8] = 3CLpro, class symbols, read-out: SARS-Cov-2 IC50
[9] = OC43 in HeLa cells, 6 days at 33° C., class symbols, read-out: EC50
[10] = HRV3C, class symbols, read-out: HRV IC50
[11] = Vero E6-eGFP cells with CP-100356, absence of virus, MTS, class symbols
[12] = Vero E6-eGFP cells with CP-100356, absence of virus, MTS, numeric bounds
[13] = HRV3C, bound, read-out: HRV IC50
[14] = OC43 in HeLa cells, 6 days at 33° C., bound, read-out: EC50

Structure (SMILES)	CC50 at 6 days [1] [µM]	EC50 [2, 7] [µM]	IC50 (human cathepsin L) [µM]	IC50 (3CLpro; [8]) [µM]	EC50 [3, 9] [µM]	EC50 ([4]; class symbols) [µM]	CC50 (in vitro [5]) [µM]	IC50 (HRV3C; [10]) [µM]	CC50 (in vitro [6]; [11]) [µM]	IC50 (HRV3C; HRV IC50, HRV3C, class symbols) [µM]	CC50 (in vitro [6]; [12]) [µM]	EC50 ([4]; numeric bounds) [µM]	IC50 (HRV3C; [13]) [µM]	EC50 [3] [µM]	IC50 (HRV3C; HRV IC50, HRV3C, bound) [µM]	EC50 [3, 14] [µM]	IC50 (3CLpro; 3CLpro, bound, read-out: SARS-Cov-2 IC50) [µM]	EC50 ([2]; Severe acute respiratory syndrome coronavirus 2, Vero C1008, 96 h, read-out: VeroE6 + CP (EC50)) [µM]	IC50 (3CLpro; SARS-Cov-2 IC50, 3CLpro, class symbols) [µM]	CC50 (in vitro [6]) [µM]
COc1cccc2[nH]c(C(=O)N3C[C@@H]4CCC[C@@H]4[C@H]3C(=O)N[C@@H](CC3CC(C)(C)NC3=O)C(=O)COCc3ccccc3)cc12 (relative stereo) [Compound 70A_1, (1S,3aR,6aS)—N-[(2S)-4-(benzyloxy)-1-[(3R*)-5,5-dimethyl-2-oxopyrrolidin-3-yl]-3-oxobutan-2-yl]-2-(4-methoxy-1H-indole-2-carbonyl)-hexahydro-1H-cyclopenta[c]pyrrole-1-carboxamide]	> 10	1 to 10	≥ 10	0.02 to 0.2	< 0.1	1 to 10	> 10	2 to 20	> 10											
COc1cccc2[nH]c(C(=O)N3C[C@@H]4CCC[C@@H]4[C@H]3C(=O)N[C@@H](CC3CC(C)(C)NC3=O)C(=O)CO)cc12 (relative stereo) [Compound 70_1, (1S,3aR,6aS)—N—((S)-1-((R*)-5,5-dimethyl-2-oxopyrrolidin-3-yl)-4-hydroxy-3-oxobutan-2-yl)-2-(4-methoxy-1H-indole-2-carbonyl)octahydrocyclopenta[c]pyrrole-1-carboxamide]	> 10	< 1	≥ 10	< 0.02	0.1 to 1	1 to 10	> 10	0.2 to 2	> 10											
COc1cccc2[nH]c(C(=O)N3C[C@@H]4CCCC[C@@H]4[C@H]3C(=O)N[C@@H](C[C@@H]3CCCNC3=O)C(=O)COCc3ccccc3)cc12 (single isomer, unassigned) [Compound 59A_1]	> 10	< 1	≥ 10	0.02 to 0.2	0.1 to 1	< 1	> 10	2 to 20	> 10											
COc1cccc2[nH]c(C(=O)N3C[C@@H]4CCC[C@@H]4[C@H]3C(=O)N[C@@H](CC3CC(C)(C)NC3=O)C(=O)C(=O)NC3CC3)cc12 (single isomer, unassigned) [Compound 95, (3S)-3-{[(1S,3aR,6aS)-2-(4-methoxy-1H-indole-2-carbonyl)-hexahydro-1H-cyclopenta[c]pyrrol-1-yl]formamido}-N-cyclopropyl-4-[(3R*)-5,5-dimethyl-2-oxopyrrolidin-3-yl]-2-oxobutanamide]	> 10	1 to 10	≥ 10	0.02 to 0.2	0.1 to 1	1 to 10	> 50			0.2 to 2	> 50									
O=C(NCc1ccccc1)C(=O)[C@H](C[C@@H]1CCNC1=O)NC(=O)[C@@H]1C[C@@H](C2CCCCC2)CN1C(=O)c1cc2ccccc2[nH]1 [Compound 20]	> 10	1 to 10	≥ 10	0.2 to 2	< 0.1		1 to 10	0.2 to 2				> 100								
COc1cccc2[nH]c(C(=O)N3C[C@@H]4CCC[C@@H]4[C@H]3C(=O)N[C@@H](C[C@@H]3CCCNC3=O)C(=O)CO)cc12 [Compound 41, (1S,3aR,6aS)—N-[(2S)-4-hydroxy-3-oxo-1-[(3S)-2-oxopiperidin-3-yl]butan-2-yl]-2-(4-methoxy-1H-indole-2-carbonyl)-hexahydro-1H-cyclopenta[c]pyrrole-1-carboxamide]	> 10	1 to 10	≥ 10		< 0.1	1 to 10	> 100				> 100		> 10							
O=C(NCc1ccccc1)C(=O)[C@H](Cc1cc[nH]n1)NC(=O)[C@@H]1CC2(CC2)CN1C(=O)c1cc2ccccc2[nH]1 [Compound 96, (S)—N—((S)-4-(benzylamino)-3,4-dioxo-1-(1H-pyrazol-3-yl)butan-2-yl)-5-(1H-indole-2-carbonyl)-5-azaspiro[2.4]heptane-6-carboxamide]	> 10		1 to 10	2 to 20			> 10					> 100		1 to 10	> 10					
COc1cccc2[nH]c(C(=O)N3Cc4ccccc4C[C@H]3C(=O)N[C@@H](C[C@@H]3CCNC3=O)C(=O)C(=O)NC3CC3)cc12 [Compound 97, (S)—N—((S)-4-(cyclopropylamino)-3,4-dioxo-1-((S)-2-oxopyrrolidin-3-yl)butan-2-yl)-2-(4-methoxy-1H-indole-2-carbonyl)-1,2,3,4-tetrahydroisoquinoline-3-carboxamide]	> 10		≥ 10	0.2 to 2			> 100			0.02 to 0.2		> 100				> 10				
O=C(NCc1ccccc1)C(=O)[C@H](Cc1ccncc1)NC(=O)[C@@H]1CC2(CC2)CN1C(=O)c1cc2ccccc2[nH]1 [Compound 112]	> 10		1 to 10				> 10					> 100	> 10			> 10	> 10			
CS(=O)(=O)c1cccc2[nH]c(C(=O)N3C[C@@H]4CCC[C@@H]4[C@H]3C(=O)N[C@@H](C[C@@H]3CCNC3=O)C(=O)CO)cc12 [Compound 150, (1S,3aR,6aS)—N-[(2S)-4-hydroxy-3-oxo-1-[(3S)-2-oxopyrrolidin-3-yl]butan-2-yl]-2-(4-methanesulfonyl-1H-indole-2-carbonyl)-hexahydro-1H-cyclopenta[c]pyrrole-1-carboxamide]	> 10		≥ 10				> 50					> 50				> 10		> 50	0.2 to 2	> 50
COc1cccc2[nH]c(C(=O)N3C[C@@H]4CCC[C@@H]4[C@H]3C(=O)N[C@@H](CN3C[C@H](O)CC3=O)C(=O)C(=O)NC3CC3)cc12 [Compound 178]		> 50	≥ 10	2 to 20			> 10				> 50	> 10	> 10							
COc1cccc2[nH]c(C(=O)N3CCC4(CC4)C[C@H]3C(=O)N[C@@H](C[C@@H]3CCNC3=O)C(=O)C(=O)NC3CC3)cc12 [Compound 179]		10 to 100	1 to 10	< 0.02			> 10	0.2 to 2			> 50	> 10								
O=C(NC1CC1)C(=O)[C@H](C[C@@H]1CCNC1=O)NC(=O)[C@@H]1CC2(CCN1C(=O)c1cc3c(C4CC4)cccc3[nH]1)CC2 [Compound 180]		1 to 10	1 to 10	0.02 to 0.2		1 to 10	> 10	0.2 to 2			> 50									
O=C(NC1CC1)C(=O)[C@H](C[C@@H]1CCNC1=O)NC(=O)[C@@H]1CC2(CCN1C(=O)c1cc3ccccc3o1)CC2 [Compound 181]		1 to 10	1 to 10	0.02 to 0.2		1 to 10	> 10	0.2 to 2			> 50									
O=C(NCCCC(F)(F)F)C(=O)[C@H](C[C@@H]1CCNC1=O)NC(=O)[C@@H]1[C@H]2CCC[C@H]2CN1C(=O)c1cc2c(Cl)cc(Cl)cc2[nH]1 [Compound 182]		1 to 10	≥ 10	0.2 to 2			1 to 10		> 10			> 10	> 10							
CC(C)CCCNC(=O)C(=O)[C@H](C[C@@H]1CCNC1=O)NC(=O)[C@@H]1[C@H]2CCC[C@H]2CN1C(=O)c1cc2c(Cl)cc(Cl)cc2[nH]1 [Compound 183]		< 1	1 to 10	0.02 to 0.2		1 to 10	1 to 10		1 to 10				> 10							
